Experimental findings from US7569554B2, “Synergistic treatment of cancer using immunomers in conjunction with therapeutic agents” (Idera Pharmaceuticals, Inc., priority 2003, dated 2009) are described below.

Data set [1] deals with vertebrate cells, preferably BALB/c mouse spleen cells or human PBMC. The data set can be described thus: Immunostimulatory activity, IL-12/IL-6 secretion (Tables 9-12, cell culture not given). Type of data set: cell-based. How it is done:
(§1) The secretion of IL-12 and IL-6 in vertebrate cells, preferably BALB/c mouse spleen cells or human PBMC, was measured by sandwich ELISA. The required reagents including cytokine antibodies and cytokine standards were purchased form PharMingen, San Diego, Calif. ELISA plates (Costar) were incubated with appropriate antibodies at 5 μg/mL in PBSN buffer (PBS/0.05% sodium azide, pH 9.6) overnight at 4° C. and then blocked with PBS/i % BSA at 37° C. for 30 minutes. Cell culture supernatants and cytokine standards were appropriately diluted with PBS/10% FBS, added to the plates in triplicate, and incubated at 25° C. for 2 hours. Plates were overlaid with 1 μg/mL appropriate biotinylated antibody and incubated at 25° C. for 1.5 hours. The plates were then washed extensively with PBS-T Buffer (PBS/0.05% Tween 20) and further incubated at 25° C. for 1.5 hours after adding streptavidin conjugated peroxidase (Sigma, St. Louis, Mo.). The plates were developed with Sure Blue™ (Kirkegaard and Perry) chromogenic reagent and the reaction was terminated by adding Stop Solution (Kirkegaard and Perry). The color change was measured on a Ceres 900 HDI Spectrophotometer (Bio-Tek Instruments).
(§2) In all instances, the levels of IL-12 and IL-6 in the cell culture supernatants were calculated from the standard curve constructed under the same experimental conditions for IL-112 and IL-6, respectively. The levels of IL-10, IFN-gamma and TNF-α in the cell culture supernatants were calculated from the standard curve constructed under the same experimental conditions for IL-10, IFN-gamma and TNF-α, respectively.

Another data set relates to BALB/c mice. The data set is described as follows: In vivo serum cytokine induction. On the set-up: species or system mouse. To be noted: 4 hrs. Here is the method: To assess serum cytokine levels, BALB/c mice (n=5) were injected intraperitoneally (i.p), subcutaneously (s.c) or intramuscularly (i.m) with IMO compounds at 10 mg/kg (single dose). Sera was collected by retro-orbital bleeding at 4 hrs of IMO administration and determined IL-112 and IL-6 by sandwich ELISA. Cytokine antibodies and standards were purchased from PharMingen (San Diego, Calif.).
To evaluate the immunopharmacological effects in vivo, IMO compounds, CpG immunomers, and non-CpG oligos were administered to BALB/c mice i.p, s.c or i.m at a dose of 10 mg/kg and their serum was evaluated for IL-12 and IL-6 after 4 hrs.

A further data set has as its system human PBMC. The data set is described as follows: Cytokine secretion in human PBMC cultures (sandwich ELISA). Format: cell-based. How it is done: as §1
Human peripheral blood mononuclear cells (PBMCs) were isolated from peripheral blood of healthy volunteers by Ficoll-Paque density gradient centrifugation (Histopaque-1077, Sigma, St. Louis, Mo.). Briefly, heparinized blood was layered onto the Histopaque-1077 (equal volume) in a conical centrifuge and centrifuged at 400×g for 30 minutes at room temperature. The buffy coat, containing the mononuclear cells, was removed carefully and washed twice with isotonic phosphate buffered saline (PBS) by centrifugation at 250×g for 10 minutes. The resulting cell pellet was then resuspended in RPMI 1640 medium containing L-glutamine (MediaTech, Inc., Hemdon, Va.) and supplemented with 10% heat inactivated FCS and penicillin-streptomycin (100 U/ml). Cells were cultured in 24 well plates for different time periods at 1×10^6 cells/ml/well in the presence or absence of oligonucleotides. At the end of the incubation period, supernatants were harvested and stored frozen at −70° C. until assayed for various cytokines including IL-6 (BD Pharmingen, San Diego, Calif.), IL-10 (BD Pharmingen), IL-12 (BioSource International, Camarillo, Calif.), IFN-α (BioSource International) and -γ(BD Pharmingen) and TNF-α(BD Pharmingen) by sandwich ELISA.
as §2

Where [2] appears, read: Intraperitoneal (i.p), 10 mg/kg.

In data set [1] (@ 3 μg/mL, Table 9), “Immunomer 58: SEQ ID NO: 33, 11mer (DNA TCTTTCNTTCT; listed as DNA, chemistry not fully specified)” had an IL-6 of 283 pg/mL and an IL-12 of 303 pg/mL.

Consider “Immunomer 62: SEQ ID NO: 35, 11mer (DNA TCTGTCNTTCT; listed as DNA, chemistry not fully specified)”, for which, in data set [1] (3 μg/mL, Table 10), the IL-6 is recorded as 296 pg/mL and the IL-12 was 787 pg/mL.

For the substance “Immunomer 78: SEQ ID NO: 37, 10mer (DNA CTGACGTTCT; DNA, backbone and methylation of C not given here; immunomer: two 10mer chains joined by non-nucleotidic linker, linker varies, further chemistry not fully specified)”, in data set [1] (0.3 μg/mL, Table 12), the IL-12 is recorded as 1750 pg/mL. The same substance showed an IL-6 in data set [1] (1 μg/mL, Table 12) of 2258 pg/mL.

For “Immunomer 65: SEQ ID NO: 4, 18mer (DNA CTATCTGANGTTCTCTGT; listed as DNA, chemistry not fully specified)”, in data set [1] (3 μg/mL, Table 11), the IL-6 worked out at 192 pg/mL and the IL-12 was 443 pg/mL.

In data set [1] (0.3 μg/mL, Table 12), “Immunomer 83: SEQ ID NO: 37, 10mer (DNA CTGACGTTCT; listed as DNA, chemistry not fully specified)” showed an IL-12 of 1241 pg/mL. For the same substance, in data set [1] (1 μg/mL, Table 12), the IL-6 amounted to 1964 pg/mL.

In data set [1] (@ 3 μg/mL, Table 9), “Immunomer 57: SEQ ID NO: 32, 11mer (DNA TCTTTNGTTCT; listed as DNA, chemistry not fully specified)” gave an IL-6 of 365 pg/mL and an IL-12 of 591 pg/mL.

In data set [1] (3 μg/mL, Table 11), “Immunomer 70: SEQ ID NO: 24, 11mer (DNA TCTGACNTTCT; listed as DNA, chemistry not fully specified)” came in with an IL-6 of 1741 pg/mL and an IL-12 of 1780 pg/mL.

“Immunomer 79: SEQ ID NO: 37, 10mer (DNA CTGACGTTCT; listed as DNA, chemistry not fully specified)” gave an IL-12 in data set [1] (0.3 μg/mL, Table 12) of 2255 pg/mL. Further, in data set [1] (1 μg/mL, Table 12), the IL-6 stood at 2034 pg/mL.

“Immunomer 74: SEQ ID NO: 37, 10mer (DNA CTGACGTTCT; DNA, backbone and methylation of C not given here; immunomer: two 10mer chains joined by non-nucleotidic linker, linker varies, further chemistry not fully specified)” gave an IL-12 in data set [1] (0.3 μg/mL, Table 12) of 1162 pg/mL. Also, the IL-6 in data set [1] (1 μg/mL, Table 12) came to 669 pg/mL.

For the substance “Immunomer 82: SEQ ID NO: 37, 10mer (DNA CTGACGTTCT; listed as DNA, chemistry not fully specified)”, the IL-12 in data set [1] (0.3 μg/mL, Table 12) is reported as 4248 pg/mL. This substance gave an IL-6 in data set [1] (1 μg/mL, Table 12) of 2988 pg/mL.

As for “5′-CTATCTCACCTTCTCTGT-3′ (DNA, backbone not given here) [Non-CpG, reference compound]”, the “Serum IL-12 induction” value in the data set on BALB/c mice (10 mg/kg i.p, s.c or i.m) is on record as “insignificant”. For the same substance, the “Serum IL-6 induction” value with BALB/c mice (10 mg/kg, all three routes of administration) is reported as “insignificant”. Further, the “IL-12 (serum)” value in the data set with BALB/c mice (Intramuscular (i.m), 10 mg/kg) was 1.6 ± 0.07 ng/mL; in the data set with BALB/c mice (setting [2]), 0.86 ± 0.5 ng/mL; with BALB/c mice (Subcutaneous (s.c), 10 mg/kg) it was 1.7 ± 0.04 ng/mL. Also, the “IL-6 (serum)” value with BALB/c mice (setting [2]) is 0.7 ± 0.3 ng/mL.

Consider “Immunomer 73: SEQ ID NO: 37, 10mer (DNA CTGACGTTCT; listed as DNA, chemistry not fully specified)”, for which, in data set [1] (0.3 μg/mL, Table 12), the IL-12 was 697 pg/mL. The same substance had an IL-6 in data set [1] (1 μg/mL, Table 12) of 1454 pg/mL.

As to 5′-CTCACTTTCGTTCTCTGT-3′ [Oligo 51], in data set [1] (@ 3 μg/mL, Table 9), the IL-6 is 348 pg/mL and the IL-12 is given as 404 pg/mL.

Take “5′-CTATCTGTCGTTCTCTGT-3′ (phosphorothioate, further chemistry not given here) [Oligo 25, 18mer (PS)]”: in data set [1] (3 μg/mL, Table 10), the IL-6 was 339 pg/mL and the IL-12 came to 379 pg/mL. In the data set on human PBMC (donor 1 (D1)), this substance displayed an IFN-γ of 125 pg/mL, an IL-6 of 3077 pg/mL, an IL-10 of 37 pg/mL and an IL-12 of 184 pg/mL. Besides, the TNF-α in the data set with human PBMC (donor 1 (D1)) was found to be 537 pg/mL. In addition, in the data set on human PBMC (donor 2 (D2)), the IFN-γ is reported as 84 pg/mL, the IL-6 was found to be 5369 pg/mL, the IL-10 is on record as 88 pg/mL and the IL-12 was 332 pg/mL.

As to “Immunomer 80: SEQ ID NO: 37, 10mer (DNA CTGACGTTCT; listed as DNA, chemistry not fully specified)”, in data set [1] (0.3 μg/mL, Table 12), the IL-12 amounted to 1493 pg/mL. The substance further yielded an IL-6 in data set [1] (1 μg/mL, Table 12) of 1197 pg/mL.

In data set [1] (3 μg/mL, Table 11), “Immunomer 68: SEQ ID NO: 7, 14mer (DNA CTGACNTTCTCTGT; listed as DNA, chemistry not fully specified)” returned an IL-6 of 1020 pg/mL and an IL-12 of 1052 pg/mL.

With “Immunomer 76: SEQ ID NO: 37, 10mer (DNA CTGACGTTCT; DNA, backbone and methylation of C not given here; immunomer: two 10mer chains joined by non-nucleotidic linker, linker varies, further chemistry not fully specified)”, in data set [1] (0.3 μg/mL, Table 12), the IL-12 is given as 563 pg/mL. The substance further yielded an IL-6 in data set [1] (1 μg/mL, Table 12) of 705 pg/mL.

For the substance “Immunomer 67: SEQ ID NO: 6, 14mer (DNA CTGANGTTCTCTGT; listed as DNA, chemistry not fully specified)”, in data set [1] (3 μg/mL, Table 11), the IL-6 is listed as 152 pg/mL and the IL-12 is given as 548 pg/mL.

In data set [1] (0.3 μg/mL, Table 12), “Immunomer 81: SEQ ID NO: 37, 10mer (DNA CTGACGTTCT; listed as DNA, chemistry not fully specified)” returned an IL-12 of 3625 pg/mL. This substance also had an IL-6 in data set [1] (1 μg/mL, Table 12) of 2642 pg/mL.

In data set [1] (0.3 μg/mL, Table 12), “Immunomer 75: SEQ ID NO: 37, 10mer (DNA CTGACGTTCT; DNA, backbone and methylation of C not given here; immunomer: two 10mer chains joined by non-nucleotidic linker, linker varies, further chemistry not fully specified)” returned an IL-12 of 1074 pg/mL. Also, the IL-6 in data set [1] (1 μg/mL, Table 12) is recorded as 1375 pg/mL.

In data set [1] (3 μg/mL, Table 11), “Immunomer 69: SEQ ID NO: 36, 11mer (DNA TCTGANGTTCT; listed as DNA, chemistry not fully specified)” had an IL-6 of 2724 pg/mL and an IL-12 of 2050 pg/mL.

In data set [1] (0.3 μg/mL, Table 12), “Immunomer 77: SEQ ID NO: 37, 10mer (DNA CTGACGTTCT; DNA, backbone and methylation of C not given here; immunomer: two 10mer chains joined by non-nucleotidic linker, linker varies, further chemistry not fully specified)” yielded an IL-12 of 264 pg/mL. In data set [1] (1 μg/mL, Table 12), the IL-6 is on record as 543 pg/mL.

Take “Immunomer 66: SEQ ID NO: 5, 18mer (DNA CTATCTGACNTTCTCTGT; listed as DNA, chemistry not fully specified)”: in data set [1] (3 μg/mL, Table 11), the IL-6 is 464 pg/mL and the IL-12 is given as 627 pg/mL.

As to “Immunomer 61: SEQ ID NO: 34, 11mer (DNA TCTGTNGTTCT; listed as DNA, chemistry not fully specified)”, in data set [1] (3 μg/mL, Table 10), the IL-6 is reported as 470 pg/mL and the IL-12 came out at 1127 pg/mL.
